Article PMC10223019, “Preclinical Evaluation of a PSMA-Targeting Homodimer with an Optimized Linker for Imaging of Prostate Cancer” (Molecules, 2023)
Where “and” joins values, the source holds several entries; their conditions need not be identical. Equal values may be shown once.

Key:
[1] = design: method as in PMID 33495926; settings: co-administration of maximum dose of 2000 pmoles PSMA-11; cited from earlier work
[2] = biological target: PSMA; design: method as in PMID 30097503; settings: cited from earlier work
[3] = test system: PSMA; design: method as in PMID 27279903; settings: PSMA-binding ligand with different chelators; cited from earlier work
[4] = biological target: T1, Recombinant human PSMA (rhPSMA) (Homo sapiens, UniProt Q04609); test: NAALADase assay (competitive inhibition, Amplex Red glutamate readout); assay type: biochemical; settings: rhPSMA, substrate Ac-Asp-Glu, 1 h 37 °C
T1 construct: purchased R&D systems, Abingdon, UK
Description: Recombinant human PSMA (rhPSMA; R&D systems, Abingdon, UK) was diluted in assay buffer (50 mM HEPES, 0.1 M NaCl, pH 7.5) to 0.4 μg/mL. The substrate Ac–Asp–Glu (40 μM) was mixed with the synthesized derivatives and with a reference (PSMA-617) at concentrations ranging from 10^−6 to 10^−13 M in a final volume of 12.5 μL assay buffer. The mixtures were combined with 12.5 μL of the rhPSMA solution and incubated for 1 h at 37 °C in 384-well black polystyrene microplates (ThermoFisher, Bleiswijk, The Netherlands). The amount of glutamate released was measured by incubating with 25 μL of a working solution of the Amplex Red glutamic acid kit (ThermoFisher, Bleiswijk, The Netherlands) at 37 °C for 30 min. Fluorescence was measured with a HIDEX Sense Optical System (Goedereede, The Netherlands) with excitation at 535 nm and emission at 590 nm. Data were normalized and analyzed using a one-site total binding regression with GraphPad Prism v9.0 (GraphPad Software, San Diego, CA, USA).

[5] = Stability in phosphate-buffered saline (PBS), radio-HPLC; assay type: physicochemical; settings: 24 h post-incubation, 37 °C, indium-111 labeled, intact fraction
Description: [^111In]In-22 or [^111In]In-30 (~10 MBq, 20 µL) was mixed with 80 μL of PBS (0.01 M, pH 7.4) and incubated at 37 °C for up to 24 h. A sample of the PBS solution was loaded directly onto the radio-HPLC at 1, 4, and 24 h post-incubation.

[6] = Stability in mouse serum, radio-HPLC; assay type: in vitro ADME; settings: 24 h post-incubation, 37 °C, indium-111 labeled, intact fraction
Description: [^111In]In-22 or [^111In]In-30 (~35 MBq, 70 µL) was mixed with 330 μL of mouse serum and incubated at 37 °C for up to 24 h. After 1, 4, and 24 h incubation, 50 μL of the mouse serum solution was added to a separate vial containing 50 µL of acetonitrile. The sample was centrifuged at 5000× g for 20 min. The supernatant was analyzed by radio-HPLC.

[7] = Stability in aqueous solution (LC-MS); assay type: physicochemical; settings: water, room temperature
Description: Dimerization was performed by elongation of 16 with 3-tritylthiopropionic acid, and reaction with 3,6-dichlorotetrazine following a biphasic protocol after cleavage from the solid support. Finally, addition of the chelator DOTA-TCO 26 was performed via the inverse electron-demand Diels–Alder reaction (IEDDA) to yield the dimeric product 27. However, it was noticed that 27 was not stable in aqueous solution, with degradation observed by LC-MS 20 min after incubation in water at room temperature. […] We hypothesized that it could originate from intramolecular interaction between the sulfur and the carboxylic acid group of the aspartic acid. Therefore, we modified the design of the dimer to include a longer spacer between 16 and the tetrazine. We replaced the 3-mercaptopropionic acid with a 6-mercaptohexanoic acid spacer. The resulting compound 30 (Scheme 2), obtained after dimerization and IEDDA reaction, was radiolabeled with In-111 and obtained in high RCY (>99%) and RCP (92.3%). It was stable in aqueous media and in the radiolabeling conditions, but also in PBS and mouse serum (>90% intact [^111In]In-30 at 24 h; Figure S7).

T1 sequence (Q04609 whole entry): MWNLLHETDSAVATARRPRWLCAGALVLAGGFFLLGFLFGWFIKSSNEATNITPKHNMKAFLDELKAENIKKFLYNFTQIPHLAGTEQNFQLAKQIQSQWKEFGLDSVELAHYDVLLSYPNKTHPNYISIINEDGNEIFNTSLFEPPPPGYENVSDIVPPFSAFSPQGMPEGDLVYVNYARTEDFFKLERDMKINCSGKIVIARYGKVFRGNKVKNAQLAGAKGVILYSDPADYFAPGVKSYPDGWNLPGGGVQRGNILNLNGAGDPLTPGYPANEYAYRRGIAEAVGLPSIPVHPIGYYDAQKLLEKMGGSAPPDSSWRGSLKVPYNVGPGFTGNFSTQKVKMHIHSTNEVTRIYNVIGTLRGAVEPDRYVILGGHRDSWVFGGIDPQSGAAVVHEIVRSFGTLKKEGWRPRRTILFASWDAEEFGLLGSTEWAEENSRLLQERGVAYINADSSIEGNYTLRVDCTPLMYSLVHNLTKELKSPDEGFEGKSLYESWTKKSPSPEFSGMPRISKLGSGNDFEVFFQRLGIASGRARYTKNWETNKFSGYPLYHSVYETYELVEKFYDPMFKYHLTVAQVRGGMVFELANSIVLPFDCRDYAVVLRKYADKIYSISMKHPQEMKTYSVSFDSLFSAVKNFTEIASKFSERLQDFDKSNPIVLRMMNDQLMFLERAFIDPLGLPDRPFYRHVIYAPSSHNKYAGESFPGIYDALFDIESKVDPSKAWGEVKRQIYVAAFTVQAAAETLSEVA

For O=C(O)CCc1ccc(O)c(CN(CCN(CC(=O)O)Cc2cc(CCC(=O)NCCCCCC(=O)NCCCC[C@H](NC(=O)N[C@@H](CCC(=O)O)C(=O)O)C(=O)O)ccc2O)CC(=O)O)c1 [PSMA-11], the “Decrease in kidney uptake of [177Lu]Lu-PSMA” value [1] is given as 99.5%, the “Decrease in salivary gland uptake of [177Lu]Lu-PSMA” value [1] is given as 89.5% and the “Decrease in tumor-uptake of [177Lu]Lu-PSMA” value [1] is given as 44.5%.

In the case of N[C@@H](CCC(=O)O)C(=O)[O-].[Na+] [Monosodium glutamate], the Ki [2] is listed as 900 nM.

For O=C(O)CCC(NC(=O)NC(CCCCNC(=O)C(Cc1ccc2ccccc2c1)NC(=O)C1CCC(CNC(=O)CCC(C(=O)O)N2CCN(CC(=O)O)CCN(CC(=O)O)CC2)CC1)C(=O)O)C(=O)O (stereo not drawn) [NODAGA-conjugate], the Internalization rate [3] is given as 48.5 ± 16.4%.

For CC(C)CC(NC(=O)C(Cc1ccccc1)NC(=O)C(CC(=O)O)NC(=O)CCCCCSC1=NNC(SCCCCCC(=O)NC(CC(=O)O)C(=O)NC(Cc2ccccc2)C(=O)NC(CC(C)C)C(O)CC(=O)NCCCCCC(=O)NCCCCC(NC(=O)NC(CCC(=O)O)C(=O)O)C(=O)O)=C2CCC(OC(=O)NCCCNC(=O)CN3CCN(CC(=O)O)CCN(CC(=O)O)CCN(CC(=O)O)CC3)CCCC12)C(O)CC(=O)NCCCCCC(=O)NCCCCC(NC(=O)NC(CCC(=O)O)C(=O)O)C(=O)O [Compound 30, [EuK(Ahx-Sta-L-Phe-Asp-SHx)]2-Tz-TCO-DOTA], the IC50 [4] was 1.05 nM and 1 to 1.6 nM, the “Stability in PBS (%)” value [5] was greater than 90% and the “Stability in Mouse Serum (%)” value [6] was greater than 90%. For the same molecule, the “Stability in aqueous solution” value [7] was “stable”.
